# Laboratory results: US20080009418A1, “Selective Inhibitors” (Alchemia LTD., priority 2004, published 2008)
# Assays:
# [1] = biological target: T1, Human neuropeptide Y (NPY-Y1) (Homo sapiens, UniProt P25929); assay: Radioligand binding, human neuropeptide Y NPY-Y1 membranes, FlashPlate, [125I]-PYY; conditions: compound at 10 μM, [125I]-PYY; for A9: inhibition of radioligand binding: human NPY-Y1 membranes
# T1 construct: purchased Perkin Elmer Biosignal
# T1 sequence (P25929 1-384): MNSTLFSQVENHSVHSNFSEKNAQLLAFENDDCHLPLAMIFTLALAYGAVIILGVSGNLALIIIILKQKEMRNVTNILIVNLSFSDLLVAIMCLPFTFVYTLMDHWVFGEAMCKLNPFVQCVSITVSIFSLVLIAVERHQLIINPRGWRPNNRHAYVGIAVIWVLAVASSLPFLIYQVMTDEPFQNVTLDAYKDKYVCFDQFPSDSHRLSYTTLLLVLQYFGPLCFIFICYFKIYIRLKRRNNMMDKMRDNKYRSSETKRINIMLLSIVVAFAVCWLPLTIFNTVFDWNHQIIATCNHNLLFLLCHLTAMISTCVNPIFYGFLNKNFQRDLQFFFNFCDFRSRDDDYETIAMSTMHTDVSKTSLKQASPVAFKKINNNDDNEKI
# Outline: (§1)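 Cloned human receptor membranes were coated onto FlashPlate wells and incubated with radioligand and compound (added from a 0.5 mM DMSO daughter plate) for 1 hour at room temperature in the dark. Scintillation counting gave percent inhibition, with DMSO defining total and reference ligand defining non-specific binding.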
# Human opioid (ORL1) = biological target: T2, Human opioid (ORL1) (Homo sapiens, UniProt P41146); assay: Radioligand binding, human opioid ORL1 membranes, FlashPlate, [125I]-Nociceptin; conditions: compound at 10 μM, [125I]-Nociceptin; for A10: inhibition of radioligand binding: human ORL1 membranes
# T2 construct: purchased Perkin Elmer Biosignal
# T2 sequence (P41146 whole entry): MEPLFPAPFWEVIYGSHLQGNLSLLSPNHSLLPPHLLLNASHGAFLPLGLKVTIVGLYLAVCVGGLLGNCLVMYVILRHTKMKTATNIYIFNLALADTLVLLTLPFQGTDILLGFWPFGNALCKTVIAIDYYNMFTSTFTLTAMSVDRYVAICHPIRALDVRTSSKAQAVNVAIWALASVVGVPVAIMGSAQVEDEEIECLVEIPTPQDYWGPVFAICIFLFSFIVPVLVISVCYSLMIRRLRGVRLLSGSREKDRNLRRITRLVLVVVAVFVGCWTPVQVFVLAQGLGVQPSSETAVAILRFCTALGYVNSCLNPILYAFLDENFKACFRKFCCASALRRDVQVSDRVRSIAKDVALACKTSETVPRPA
# Outline: as §1
# [2] = biological target: T3, Human melanin-concentrating hormone (MCH1) (Homo sapiens, UniProt Q99705); assay: Radioligand binding, human melanin-concentrating hormone MCH1 membranes, FlashPlate, [125I]-S36057; conditions: compound at 10 μM; for A6: inhibition of radioligand binding, human melanin-concentrating hormone (MCH1): [125I]-S36057; for A6: inhibition of radioligand binding: [125I]-S36057, human MCH1 membranes
# T3 construct: purchased Perkin Elmer Biosignal
# T3 sequence (Q99705 whole entry): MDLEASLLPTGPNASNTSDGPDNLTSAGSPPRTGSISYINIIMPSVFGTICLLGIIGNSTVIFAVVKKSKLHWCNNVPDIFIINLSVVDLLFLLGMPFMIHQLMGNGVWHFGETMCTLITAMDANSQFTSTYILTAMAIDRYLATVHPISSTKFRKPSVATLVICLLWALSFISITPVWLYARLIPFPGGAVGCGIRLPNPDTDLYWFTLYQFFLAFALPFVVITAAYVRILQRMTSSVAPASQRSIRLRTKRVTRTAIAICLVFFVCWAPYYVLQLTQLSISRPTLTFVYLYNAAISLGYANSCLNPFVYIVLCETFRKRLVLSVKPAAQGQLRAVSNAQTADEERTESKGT
# Outline: as §1
# Human melanocortin (MC5) = biological target: T4, Human melanocortin (MC5) (Homo sapiens, UniProt P33032); assay: Radioligand binding, human melanocortin MC5 membranes, FlashPlate, [125I]-NDP-αMSH; conditions: compound at 10 μM, [125I]-NDP-αMSH; for A5: inhibition of radioligand binding: human MC5 membranes
# T4 construct: purchased Perkin Elmer Biosignal
# T4 sequence (P33032 whole entry): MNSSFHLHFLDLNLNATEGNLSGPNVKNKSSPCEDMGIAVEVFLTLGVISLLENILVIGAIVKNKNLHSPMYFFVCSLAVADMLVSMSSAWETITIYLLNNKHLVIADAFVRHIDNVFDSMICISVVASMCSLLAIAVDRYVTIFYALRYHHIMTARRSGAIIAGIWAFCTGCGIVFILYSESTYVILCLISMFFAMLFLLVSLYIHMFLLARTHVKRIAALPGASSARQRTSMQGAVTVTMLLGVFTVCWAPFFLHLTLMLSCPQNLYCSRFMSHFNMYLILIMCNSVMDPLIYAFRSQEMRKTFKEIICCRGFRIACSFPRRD
# Outline: as §1
# Human μ-opioid (MOP) = biological target: T5, Human μ-opioid (MOP) (Homo sapiens, UniProt P35372); assay: Radioligand binding, human μ-opioid (MOP) membranes, FlashPlate, [3H]-Naloxone; conditions: compound at 10 μM, [3H]-Naloxone; for A7: inhibition of radioligand binding: human MOP membranes
# T5 construct: purchased Perkin Elmer Biosignal
# T5 sequence (P35372 whole entry): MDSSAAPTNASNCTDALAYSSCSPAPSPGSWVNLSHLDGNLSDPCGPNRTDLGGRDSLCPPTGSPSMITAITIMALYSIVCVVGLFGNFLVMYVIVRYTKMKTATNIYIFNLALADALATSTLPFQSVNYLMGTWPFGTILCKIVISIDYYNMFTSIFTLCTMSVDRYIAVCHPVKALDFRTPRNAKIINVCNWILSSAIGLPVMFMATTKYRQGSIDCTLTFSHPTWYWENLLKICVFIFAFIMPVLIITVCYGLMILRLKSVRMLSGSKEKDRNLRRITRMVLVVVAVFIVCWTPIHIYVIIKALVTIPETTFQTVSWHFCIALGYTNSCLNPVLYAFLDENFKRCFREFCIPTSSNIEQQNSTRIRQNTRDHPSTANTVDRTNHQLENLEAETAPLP
# Outline: as §1
# Human Melanocortin (MC4) = biological target: T6, Human Melanocortin (MC4) (Homo sapiens, UniProt P32245); assay: Radioligand binding, human melanocortin MC4 membranes, FlashPlate, [125I]-NDP-αMSH; conditions: compound at 10 μM, [125I]-NDP-αMSH; for A4: inhibition of radioligand binding: human MC4 membranes
# T6 construct: purchased Perkin Elmer Biosignal
# T6 sequence (P32245 whole entry): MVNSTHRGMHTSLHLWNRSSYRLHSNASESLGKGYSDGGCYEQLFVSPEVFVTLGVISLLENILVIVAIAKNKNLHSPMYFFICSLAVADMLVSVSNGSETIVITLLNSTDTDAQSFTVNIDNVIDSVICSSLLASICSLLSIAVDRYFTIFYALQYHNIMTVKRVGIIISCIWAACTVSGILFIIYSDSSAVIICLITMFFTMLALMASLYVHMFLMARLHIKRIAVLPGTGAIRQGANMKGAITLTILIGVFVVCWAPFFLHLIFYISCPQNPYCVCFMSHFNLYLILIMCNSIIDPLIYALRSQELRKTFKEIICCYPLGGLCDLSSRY
# Outline: as §1
# Human δ-opioid (DOP) = biological target: T7, Human δ-opioid (DOP) (Homo sapiens, UniProt P41143); assay: Radioligand binding, human δ-opioid (DOP) membranes, FlashPlate, [3H]-Bremazocine; conditions: compound at 10 μM, [3H]-Bremazocine; for A1: inhibition of radioligand binding: human DOP membranes
# T7 construct: purchased Perkin Elmer Biosignal
# T7 sequence (P41143 whole entry): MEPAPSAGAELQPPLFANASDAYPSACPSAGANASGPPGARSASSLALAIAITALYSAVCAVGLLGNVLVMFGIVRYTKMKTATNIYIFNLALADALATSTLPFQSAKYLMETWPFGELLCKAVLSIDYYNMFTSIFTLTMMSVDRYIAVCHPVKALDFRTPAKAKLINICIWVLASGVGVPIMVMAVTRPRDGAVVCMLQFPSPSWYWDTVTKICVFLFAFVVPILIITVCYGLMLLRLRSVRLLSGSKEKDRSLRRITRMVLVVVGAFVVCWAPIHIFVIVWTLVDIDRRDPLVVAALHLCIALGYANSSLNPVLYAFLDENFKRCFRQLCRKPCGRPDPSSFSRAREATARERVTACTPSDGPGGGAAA
# Outline: as §1
# Human Melanocortin (MC3) = biological target: T8, Human Melanocortin (MC3) (Homo sapiens, UniProt P41968); assay: Radioligand binding, human melanocortin MC3 membranes, FlashPlate, [125I]-NDP-αMSH; conditions: compound at 10 μM, [125I]-NDP-αMSH; for A3: inhibition of radioligand binding: human MC3 membranes
# T8 construct: purchased Perkin Elmer Biosignal
# T8 sequence (P41968 whole entry): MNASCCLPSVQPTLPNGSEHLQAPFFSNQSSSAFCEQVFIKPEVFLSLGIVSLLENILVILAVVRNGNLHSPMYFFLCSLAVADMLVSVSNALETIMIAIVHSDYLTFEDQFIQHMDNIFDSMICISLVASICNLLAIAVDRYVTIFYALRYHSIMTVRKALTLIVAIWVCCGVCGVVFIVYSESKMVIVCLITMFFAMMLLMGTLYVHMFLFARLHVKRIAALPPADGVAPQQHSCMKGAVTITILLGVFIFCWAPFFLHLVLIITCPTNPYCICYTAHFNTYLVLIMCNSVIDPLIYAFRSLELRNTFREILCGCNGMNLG
# Outline: as §1
# Human neurokinin (NK1) = biological target: T9, Human neurokinin (NK1) (Homo sapiens, UniProt P25103); assay: Radioligand binding, human neurokinin NK1 membranes, filtration, [125I]-Substance P; conditions: compound at 10 μM, [125I]-Substance P; for A8: inhibition of radioligand binding: human NK1 membranes
# T9 construct: purchased Perkin Elmer Biosignal
# T9 sequence (P25103 whole entry): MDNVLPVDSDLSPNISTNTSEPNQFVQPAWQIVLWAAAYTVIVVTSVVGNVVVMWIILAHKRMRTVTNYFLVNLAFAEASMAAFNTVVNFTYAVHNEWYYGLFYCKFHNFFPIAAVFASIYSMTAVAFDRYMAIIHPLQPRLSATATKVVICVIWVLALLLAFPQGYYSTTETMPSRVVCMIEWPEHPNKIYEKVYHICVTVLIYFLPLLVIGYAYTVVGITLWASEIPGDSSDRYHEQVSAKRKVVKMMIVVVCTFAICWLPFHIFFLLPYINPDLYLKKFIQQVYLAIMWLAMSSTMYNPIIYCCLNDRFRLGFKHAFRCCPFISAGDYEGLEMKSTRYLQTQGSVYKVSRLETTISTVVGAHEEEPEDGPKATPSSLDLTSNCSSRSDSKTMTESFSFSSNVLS
# Outline: (§2)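 Filtration binding on cloned human receptor membranes (1 Unit/well), [125I]-Substance P for NK1 and [3H]-Diprenorphine for KOP, 1 h at room temperature. Filters PEI-presoaked, washed with cold 50 mM Tris-HCl pH 7.4, counted by scintillation; percent inhibition calculated, reference ligand defining non-specific binding.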
# Mouse urotensin (mUR2) = biological target: T10, Mouse urotensin (mUR2) (Mus musculus, UniProt Q8VIH9); assay: Radioligand binding, mouse urotensin mUR2 membranes, FlashPlate, [125I]-Urotensin II; conditions: compound at 10 μM, [125I]-Urotensin II; for A11: inhibition of radioligand binding: mouse mUR2 membranes
# T10 construct: purchased Perkin Elmer Biosignal
# T10 sequence (Q8VIH9 1-385): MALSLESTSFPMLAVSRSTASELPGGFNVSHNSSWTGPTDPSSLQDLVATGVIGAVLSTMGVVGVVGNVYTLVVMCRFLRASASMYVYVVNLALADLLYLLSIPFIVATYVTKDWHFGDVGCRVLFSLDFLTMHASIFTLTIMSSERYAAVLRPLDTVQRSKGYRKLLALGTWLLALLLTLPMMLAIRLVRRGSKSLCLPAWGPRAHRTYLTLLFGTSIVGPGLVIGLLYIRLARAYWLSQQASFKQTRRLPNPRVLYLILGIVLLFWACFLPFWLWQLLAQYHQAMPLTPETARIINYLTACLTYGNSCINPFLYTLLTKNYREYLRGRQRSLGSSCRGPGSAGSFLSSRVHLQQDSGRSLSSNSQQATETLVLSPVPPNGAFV
# Outline: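 Cloned mouse urotensin (mUR2) receptor membranes from Perkin Elmer Biosignal were immobilized in FlashPlate microplates using a proprietary coating. Each well got 19.5 μl buffer, then 0.5 μl of DMSO, reference ligand, or compound. Adding 5 μl of [125I]-Urotensin II, diluted to 5× final concentration in binding buffer, started binding. Plates were sealed with TopSeal-A and incubated 1 hour at room temperature in the dark. Wells were counted for 30 seconds each on a TopCount after a 60-second delay, and percentage inhibition was calculated.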
# Human κ-Opioid (KOP) = biological target: T11, Human κ-Opioid (KOP) (Homo sapiens, UniProt P41145); assay: Radioligand binding, human κ-opioid (KOP) membranes, filtration, [3H]-Diprenorphine; conditions: compound at 10 μM, [3H]-Diprenorphine; for A2: inhibition of radioligand binding: human KOP membranes
# T11 construct: purchased Perkin Elmer Biosignal
# T11 sequence (P41145 whole entry): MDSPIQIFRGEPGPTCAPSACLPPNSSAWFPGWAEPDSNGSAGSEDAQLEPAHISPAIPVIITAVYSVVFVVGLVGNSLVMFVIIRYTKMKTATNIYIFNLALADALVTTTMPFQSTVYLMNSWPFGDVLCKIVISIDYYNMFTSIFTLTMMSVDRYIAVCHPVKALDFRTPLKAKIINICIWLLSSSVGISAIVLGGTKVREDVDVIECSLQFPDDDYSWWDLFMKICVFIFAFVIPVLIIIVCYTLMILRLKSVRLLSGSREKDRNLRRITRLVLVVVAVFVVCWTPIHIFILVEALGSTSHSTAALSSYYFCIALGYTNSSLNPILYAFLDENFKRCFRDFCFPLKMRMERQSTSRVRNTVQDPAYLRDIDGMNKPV
# Outline: as §2
SMILES,"A9: inhibition of radioligand binding, human neuropeptide Y (NPY-Y1) [1]","A10: inhibition of radioligand binding, human opioid (ORL1) (Human opioid (ORL1); 10 µM)","A6: inhibition of radioligand binding, human melanin-concentrating hormone (MCH1) [2]","A5: inhibition of radioligand binding, human melanocortin (MC5) (Human melanocortin (MC5))","A1: inhibition of radioligand binding, human δ-opioid (DOP) (Human δ-opioid (DOP))","A3: inhibition of radioligand binding, human melanocortin (MC3) (Human Melanocortin (MC3))","A11: inhibition of radioligand binding, mouse urotensin (mUR2) (Mouse urotensin (mUR2))","A2: inhibition of radioligand binding, human κ-opioid (KOP) (Human κ-Opioid (KOP))","A7: inhibition of radioligand binding, human μ-opioid (MOP) (Human μ-opioid (MOP))","A4: inhibition of radioligand binding, human melanocortin (MC4) (Human Melanocortin (MC4))","A8: inhibition of radioligand binding, human neurokinin (NK1) (Human neurokinin (NK1))",A9: inhibition of radioligand binding [1],A5: inhibition of radioligand binding (Human melanocortin (MC5)),A4: inhibition of radioligand binding (Human Melanocortin (MC4)),A1: inhibition of radioligand binding (Human δ-opioid (DOP)),A3: inhibition of radioligand binding (Human Melanocortin (MC3)),A8: inhibition of radioligand binding (Human neurokinin (NK1)),A11: inhibition of radioligand binding (Mouse urotensin (mUR2)),A2: inhibition of radioligand binding (Human κ-Opioid (KOP)),also measured
"NCCC(=O)NC1C(OCc2ccc(Cl)cc2)OC(COCc2ccc(Cl)cc2)C(O)C1OCc1ccccc1 (single isomer, unassigned) [compound 488]",− (“−” indicates less than 50% inhibition at 10 μM),+ (“+” indicates greater than 50% inhibition at 10 μM),− (“−” indicates less than 50% inhibition at 10 μM),+ (“+” indicates greater than 50% inhibition at 10 μM),− (“−” indicates less than 50% inhibition at 10 μM),− (“−” indicates less than 50% inhibition at 10 μM),− (“−” indicates less than 50% inhibition at 10 μM),− (“−” indicates less than 50% inhibition at 10 μM),–,–,–,–,–,–,–,–,–,–,–,"A7: inhibition of radioligand binding, human μ-opioid (MOP) (Human μ-opioid (MOP); 10 µM): − (“−” indicates less than 50% inhibition at 10 μM); A4: inhibition of radioligand binding, human melanocortin (MC4) (Human Melanocortin (MC4); 10 µM): + (“+” indicates greater than 50% inhibition at 10 μM); A8: inhibition of radioligand binding, human neurokinin (NK1) (Human neurokinin (NK1); 10 µM): + (“+” indicates greater than 50% inhibition at 10 μM)"
"COC[C@H]1OC(OCc2ccc(Cl)cc2)[C@H](NC(=O)CCCN)[C@@H](OCc2ccc3ccccc3c2)[C@@H]1O (single isomer, unassigned) [compound 343]",− (“−” indicates less than 50% inhibition at 10 μM),–,− (“−” indicates less than 50% inhibition at 10 μM),− (“−” indicates less than 50% inhibition at 10 μM),− (“−” indicates less than 50% inhibition at 10 μM),− (“−” indicates less than 50% inhibition at 10 μM),− (“−” indicates less than 50% inhibition at 10 μM),− (“−” indicates less than 50% inhibition at 10 μM),− (“−” indicates less than 50% inhibition at 10 μM),− (“−” indicates less than 50% inhibition at 10 μM),+ (“+” indicates greater than 50% inhibition at 10 μM),–,–,–,–,–,–,–,–,"A10: inhibition of radioligand binding, human opioid (ORL1) (Human opioid (ORL1)): − (“−” indicates less than 50% inhibition at 10 μM)"
N=C(N)NCCC(=O)NC1C(OCc2ccc(-c3ccccc3)cc2)OC(COCc2ccc(Cl)cc2)C(O)C1OCc1ccc2ccccc2c1 (stereo not shown) [compound 413],–,–,–,–,–,–,–,–,–,–,–,− (“−” indicates less than 50% inhibition at 10 μM),+ (“+” indicates greater than 50% inhibition at 10 μM),+ (“+” indicates greater than 50% inhibition at 10 μM),− (“−” indicates less than 50% inhibition at 10 μM),+ (“+” indicates greater than 50% inhibition at 10 μM),+ (“+” indicates greater than 50% inhibition at 10 μM),− (“−” indicates less than 50% inhibition at 10 μM),− (“−” indicates less than 50% inhibition at 10 μM),A10: inhibition of radioligand binding (Human opioid (ORL1)): + (“+” indicates greater than 50% inhibition at 10 μM); A6: inhibition of radioligand binding [2]: + (“+” indicates greater than 50% inhibition at 10 μM); A7: inhibition of radioligand binding (Human μ-opioid (MOP)): − (“−” indicates less than 50% inhibition at 10 μM)
"NCCCC(=O)NC1C(OCc2ccc(Cl)cc2)OC(COCc2ccccc2)C(O)C1OCc1ccccc1 (single isomer, unassigned) [compound 503]",− (“−” indicates less than 50% inhibition at 10 μM),− (“−” indicates less than 50% inhibition at 10 μM),− (“−” indicates less than 50% inhibition at 10 μM),–,− (“−” indicates less than 50% inhibition at 10 μM),− (“−” indicates less than 50% inhibition at 10 μM),− (“−” indicates less than 50% inhibition at 10 μM),− (“−” indicates less than 50% inhibition at 10 μM),− (“−” indicates less than 50% inhibition at 10 μM),− (“−” indicates less than 50% inhibition at 10 μM),+ (“+” indicates greater than 50% inhibition at 10 μM),–,–,–,–,–,–,–,–,"A5: inhibition of radioligand binding, human melanocortin (MC5) (Human melanocortin (MC5); 10 µM): + (“+” indicates greater than 50% inhibition at 10 μM)"
"NCCCC(=O)NC1C(OCc2ccc3ccccc3c2)OC(COCc2ccc(Cl)cc2)C(O)C1OCc1ccc(Cl)cc1 (single isomer, unassigned) [compound 458]",–,–,–,–,–,–,–,–,–,–,–,− (“−” indicates less than 50% inhibition at 10 μM),+ (“+” indicates greater than 50% inhibition at 10 μM),+ (“+” indicates greater than 50% inhibition at 10 μM),− (“−” indicates less than 50% inhibition at 10 μM),+ (“+” indicates greater than 50% inhibition at 10 μM),+ (“+” indicates greater than 50% inhibition at 10 μM),− (“−” indicates less than 50% inhibition at 10 μM),− (“−” indicates less than 50% inhibition at 10 μM),A10: inhibition of radioligand binding (Human opioid (ORL1); 10 µM): + (“+” indicates greater than 50% inhibition at 10 μM); A6: inhibition of radioligand binding ([2]; 10 µM): + (“+” indicates greater than 50% inhibition at 10 μM); A7: inhibition of radioligand binding (Human μ-opioid (MOP); 10 µM): + (“+” indicates greater than 50% inhibition at 10 μM)
